Data published in patent US5789531A, “Peptide-based inhibitors of HIV replication” (Allex Biopharmaceuticals, Inc., priority 1995, dated 1998).
Values joined by “and” are separate entries in the source; they are usually repeats but may differ in a detail not shown here. Equal entries are not always repeated. Where two headings read alike, the source gives them in different places.

Columns and labels:
[1] = system: tat; conditions: Green et al, Cell 1989, 58:215; cited from earlier work
[2] = system: HIV (strain NL4-3); assay type: cell-based; conditions: for PH Titers: HuT78 cells, 5 uM pretreatment, 10 uM after infection
Source text: Controls used water in place of peptide.

[3] = system: HuT78 cells; experiment: Host cell replication in presence of peptide
[4] = system: yeast tRNA; experiment: TAR binding compared with yeast tRNA binding
[5] = system: truncated functional form of TAR RNA (SEQ ID NO:13); experiment: RNA gel mobility shift TAR-binding assay; parameters: species or system HIV; conditions: relative to tat (1-86) and the oligopeptide representing the tat basic domain
Protocol: This assay generally involves the incubation of a selected oligopeptide with gel-purified, radio-labelled TAR RNA, or tat-binding fragment of TAR RNA, that has been produced either by direct synthesis or through transcription of a corresponding DNA template. Samples are loaded onto non-denaturing polyacrylamide gel and subjected to electrophoresis, and then migration of labelled RNA through the gel is visualized on gel-exposed, X-ray film. Oligopeptides which bind TAR are identified in this assay by their characteristic, retarded migration on the gel, relative to TAR RNA to which no oligopeptide has bound. In this mobility shift assay, oligopeptides having an "enhanced" affinity for binding TAR RNA will resolve on the gel as bands which, in addition to displaying the retarded migration pattern characteristic of TAR-binding oligopeptides, will also appear with greater intensity and/or size than a band containing TAR RNA bound to tat (1-86).
(§1) TAR-binding affinity of the oligopeptides relative to HIV tat(1-86) and relative to tat fragments representing the tat basic domain, was evaluated by RNA gel mobility shift assay using as ligand a truncated functional form of TAR RNA having the sequence (SEQ ID NO:13) shown below.
Synthesis of the TAR fragment and its variant analogue was accomplished as described by Roy et al. in Genes and Development, 1990, 4:1365. […]

[6] = system: variant of TAR (SEQ ID NO:14) which does not bind tat; experiment: RNA gel mobility shift assay with non-functional TAR variant (specificity); assay type: binding, HIV; conditions: functional TAR fragment vs non-functional TAR variant
Protocol: as §1
Synthesis of the TAR fragment and its variant analogue was accomplished as described by Roy et al. in Genes and Development, 1990, 4:1365. The TAR-binding assay was also performed in the manner reported by Roy et al, supra, which is incorporated herein by reference.

In the case of “Arg--Lys--Lys--Arg--Arg--Gln--Arg--Arg--Arg”, the tat antagonist activity [1] is given as “Weak tat antagonist activity”.
In the case of `CC(=O)N[C@H](CCCNC(=N)N)C(=O)N[C@H](CCCNC(=N)N)C(=O)N[C@H](CCCNC(=N)N)C(=O)N[C@H](CCCNC(=N)N)C(=O)N[C@H](CCCNC(=N)N)C(=O)N[C@H](CCCNC(=N)N)C(=O)N[C@H](CCCNC(=N)N)C(=O)N[C@H](CCCNC(=N)N)C(=O)N[C@H](CCCNC(=N)N)C(N)=O` [4C, acetyl-[D-Arg]9 --NH2], the “PH Titers” value ([2]; 7 Day Pretreatment, Day 4 after infection, listed as 4C1) is reported as 168.4 pg/mL and 98.08 pg/mL, the “PH Titers” value ([2]; 7 Day Pretreatment, Day 4 after infection, listed as 4C2) is reported as 131.5 pg/mL and 93.76 pg/mL and the “PH Titers” value ([2]; 14 Day Pretreatment, Day 4 after infection, listed as 4C1) is reported as 152.5 pg/mL. The “PH Titers” value ([2]; 14 Day Pretreatment, Day 4 after infection, listed as 4C2) was 129.0 pg/mL, the “PH Titers” value ([2]; 14 Day Pretreatment, Day 7 after infection, listed as 4C1) was 175.1 pg/mL and the “PH Titers” value ([2]; 14 Day Pretreatment, Day 7 after infection, listed as 4C2) was 133.6 pg/mL. For the same compound, the “inhibition of viral replication, as measured by p24 assay” value ([2]; at the concentration tested (5 uM), FIG. 1) was ≥ 95%, the “inhibition of host cell replication” value ([3]; 5 uM) was “no apparent inhibition of host cell replication” and the “effect on cell replication” value ([3]; 100 uM, separate experiments) was “no significant detrimental effect on cell replication”. For the same compound, the “specificity of TAR binding compared with yeast tRNA binding” value [4] was “specificity of binding has also been confirmed”, the TAR-binding affinity [5] was “TAR-binding affinity comparable to the basic domain of wild type tat” and the “specificity for binding to the functional TAR fragment relative to the TAR variant” value [6] was “specificity comparable to the wild type basic domain”.
For `CC(=O)N[C@H](CCCNC(=N)N)C(=O)N[C@H](CCCCN)C(=O)N[C@H](CCCCN)C(=O)N[C@H](CCCNC(=N)N)C(=O)N[C@H](CCCNC(=N)N)C(=O)N[C@H](CCC(N)=O)C(=O)N[C@H](CCCNC(=N)N)C(=O)N[C@H](CCCNC(=N)N)C(=O)N[C@H](CCCNC(=N)N)C(N)=O` [4G, acetyl-[D-(Arg--Lys--Lys--Arg--Arg--Gln--Arg--Arg--Arg)]--NH2], the “HIV inhibition / resistance to viral infection” value ([2]; 5 uM concentration) was “positive effects on HIV inhibition”, the “PH Titers” value ([2]; 7 Day Pretreatment, Day 4 after infection, listed as 4G1) was 312.1 pg/mL and the “PH Titers” value ([2]; 7 Day Pretreatment, Day 4 after infection, listed as 4G2) was 336.1 pg/mL. For the same compound, the “PH Titers” value ([2]; 7 Day Pretreatment, Day 7 after infection, listed as 4G1) was 371.5 pg/mL, the “PH Titers” value ([2]; 7 Day Pretreatment, Day 7 after infection, listed as 4G2) was 446.8 pg/mL and the “PH Titers” value ([2]; 24 Hrs Pretreatment, Day 4 after infection, listed as 4G1) was 340.9 pg/mL. The “PH Titers” value ([2]; 24 Hrs Pretreatment, Day 4 after infection, listed as 4G2) was 356.9 pg/mL, the “PH Titers” value ([2]; 24 Hrs Pretreatment, Day 7 after infection, listed as 4G1) was 721.1 pg/mL and the “PH Titers” value ([2]; 24 Hrs Pretreatment, Day 7 after infection, listed as 4G2) was 851.8 pg/mL.
